In patent publication US20170232083A1, “METHODS OF DIAGNOSIS AND TREATMENT OF CELIAC DISEASE IN CHILDREN” (priority 2014, published 2017):

Test system: PBMC (polyclonal gluten-specific T cells) of paediatric and adult CD patients
Assay: IFN-γ ELISpot of PBMC after 3 day oral wheat challenge (SFU, % of maximal peptide response, dominance scores, EC50; Examples 5-6)
Assay type: cell-based, human
Settings: for Cross-reactive T cell response: following wheat challenge

QPFPQPEQPFSWQ
Cross-reactive T cell response (subject A, 11-17yrs): 0 SFU | Significant response as a percentage of maximal peptide SFU (subject D, 11-17yrs): ′′′ (41-70% = ′′′) | Cross-reactive T cell response (subject D, 11-17yrs): 16 SFU | Significant response as a percentage of maximal peptide SFU (subject E, 11-17yrs): ′ (11-20% = ′) | Cross-reactive T cell response (subject E, 11-17yrs): 34 SFU | Significant response as a percentage of maximal peptide SFU (subject F, 11-17yrs): ′ (11-20% = ′) | Cross-reactive T cell response (subject F, 11-17yrs): 19 SFU | Cross-reactive T cell response (subject G, 11-17yrs): 6 SFU | Cross-reactive T cell response (subject H): 1 SFU | Cross-reactive T cell response (subject I (3-5yrs/6-10yrs part)): 2 SFU | Significant response as a percentage of maximal peptide SFU (subject J): ′′′ (41-70% = ′′′) | Cross-reactive T cell response (subject J (3-5yrs/6-10yrs part)): 79 SFU | Significant response as a percentage of maximal peptide SFU (subject K): ′′ (21-40% = ′′) | Cross-reactive T cell response (subject K (3-5yrs/6-10yrs part)): 20 SFU | Cross-reactive T cell response (subject P, 11-17yrs): 14 SFU | Significant response as a percentage of maximal peptide SFU (subject Q, 11-17yrs): ′′ (21-40% = ′′) | Cross-reactive T cell response (subject Q, 11-17yrs): 29 SFU | Significant response as a percentage of maximal peptide SFU (subject T, 11-17yrs): ′′′ (41-70% = ′′′) | Cross-reactive T cell response (subject T, 11-17yrs): 41 SFU | Significant response as a percentage of maximal peptide SFU (subject U, 11-17yrs): ′′ (21-40% = ′′) | Cross-reactive T cell response (subject U, 11-17yrs): 18 SFU | Significant response as a percentage of maximal peptide SFU (subject V): + (>70% = +) | Cross-reactive T cell response (subject V (3-5yrs/6-10yrs part)): 25 SFU | Cross-reactive T cell response (subject W (3-5yrs/6-10yrs part)): 3 SFU | Cross-reactive T cell response (subject Y (3-5yrs/6-10yrs part)): 8 SFU | Significant response as a percentage of maximal peptide SFU (subject five): + (>70% = +) | Cross-reactive T cell response (subject five (3-5yrs/6-10yrs part)): 42 SFU | Cross-reactive T cell response (subject nine, 11-17yrs): 1 SFU | Cross-reactive T cell response (subject seven (3-5yrs/6-10yrs part)): 6 SFU | Cross-reactive T cell response (subject six (3-5yrs/6-10yrs part)): 8 SFU | Cross-reactive T cell response (subject ten (3-5yrs/6-10yrs part)): 0 SFU | Significant response as a percentage of maximal peptide SFU (subject two): ′′ (21-40% = ′′) | Cross-reactive T cell response (subject two (3-5yrs/6-10yrs part)): 26 SFU
